Reference: patent publication US10689378B2, “Triazolopyridine compounds and uses thereof” (Novartis AG, priority 2016, dated 2020)

How the values were obtained:
[1] = tested on: H3K27 methylation in G401 cell; assay: ELISA (H3K27 methylation) assay in G401 cells; format: cell-based, human; conditions: Homo sapiens, G-401, H3K27 methylation ELISA, read-out: (c) IC50 ELISA Qualified
Outline: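 G401 cells treated 48 h with 3-fold dilutions (8 or 12 points, top 20 μM). Acid-extracted histones probed by ELISA for H3K27me3 or H3K27me2 with ECL readout, normalized to total H3. Percent inhibition versus DMSO fitted to dose-response curve for IC50.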

EED (1-441)-His protein = target: T1, EED (1-441)-His protein (Homo sapiens, UniProt O75530); assay: EED-H3K27Me3 peptide competition binding assay by AlphaScreen; conditions: EED-H3K27Me3 peptide competition, AlphaScreen; read-out: (a) IC50 EED Alphascreen binding Qualified
T1 construct: 30 nM EED (1-441)-His protein
T1 sequence (O75530 whole entry): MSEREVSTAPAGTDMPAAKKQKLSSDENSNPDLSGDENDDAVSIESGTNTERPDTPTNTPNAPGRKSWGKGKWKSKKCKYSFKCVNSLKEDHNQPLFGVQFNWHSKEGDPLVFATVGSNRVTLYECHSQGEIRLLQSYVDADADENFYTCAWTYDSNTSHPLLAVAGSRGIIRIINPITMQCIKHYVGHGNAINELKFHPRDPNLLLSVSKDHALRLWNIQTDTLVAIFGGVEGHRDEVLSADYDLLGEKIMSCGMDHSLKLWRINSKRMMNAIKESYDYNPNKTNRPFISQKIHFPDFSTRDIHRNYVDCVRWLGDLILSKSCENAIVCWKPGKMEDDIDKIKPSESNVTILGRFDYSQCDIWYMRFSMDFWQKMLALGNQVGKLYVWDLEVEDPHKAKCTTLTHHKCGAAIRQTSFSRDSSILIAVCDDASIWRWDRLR
Outline: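 Serially diluted compound (12 points, 3-fold) incubated 20 min with 30 nM EED(1-441)-His and 15 nM biotin-H3K27Me3(19-33) peptide in 25 mM HEPES pH 8, 0.02% Tween-20, 0.5% BSA. Ni-chelate acceptor/streptavidin donor beads (10 μg/mL each) added, 1 h rt dark; 615 nm emission normalized to controls, dose-response fit for IC50.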

Row | IC50 [1] [nM] | IC50 (EED (1-441)-His protein) [nM] | Compound
1 | 318 | 270 | COc1cccc(F)c1CNc1ccc(-c2cnccc2C(F)(F)F)c2nncn12 [Example 202, N-(2-fluoro-6-methoxybenzyl)-8-(4-(trifluoromethyl)pyridin-3-yl)-[1,2,4]triazolo[4,3-a] pyridin-5-amine]
2 | 95.8 | 143 | COc1cccc(F)c1CNc1ccc(-c2cncc(OCCS(C)(=O)=O)c2)c2nncn12 [Example 204, N-(2-fluoro-6-methoxybenzyl)-8-(5-(2-(methylsulfonyl)ethoxy)pyridin-3-yl)-[1,2,4]triazolo[4,3-a] pyridin-5-amine]
3 | 140 | 105 | COc1cccc(F)c1CNc1ccc(-c2cc(F)c(N)cc2F)c2nncn12 [Example 208, 8-(4-amino-2,5-difluorophenyl)-N-(2-fluoro-6-methoxybenzyl)-[1,2,4]triazolo[4,3-a]pyridin-5-amine]
4 | 76.2 | 119 | COc1cccc(F)c1CNc1ccc(-c2ccc(C#N)cc2C)c2nncn12 [Example 209, 4-(5-((2-fluoro-6-methoxybenzyl)amino)-[1,2,4]triazolo[4,3-a]pyridin-8-yl)-3-methylbenzonitrile]
5 | 151 | 103 | COc1cccc(F)c1CNc1ccc(-c2ccccc2C)c2nncn12 [Example 211, N-(2-fluoro-6-methoxybenzyl)-8-(o-tolyl)-[1,2,4] triazolo[4,3-a]pyridin-5-amine]
6 | 220 | 137 | COc1cccc(F)c1CNc1ccc(-c2ccc(Cl)cc2Cl)c2nncn12 [Example 224, 8-(2,4-dichlorophenyl)-N-(2-fluoro-6-methoxybenzyl)-[1,2,4]triazolo[4,3-a]pyridin-5-amine]
7 | 454 | 177 | COc1ccc(F)c(F)c1CNc1ccc(-c2cccnc2)c2nncn12 [Example 242, N-(2,3-difluoro-6-methoxybenzyl)-8-(pyridin-3-yl)-[1,2,4]triazolo[4,3-a]pyridin-5-amine]
8 | 349 | 329 | COc1ccc(F)c(F)c1CNc1ccc(-c2ccncc2)c2nncn12 [Example 243, N-(2,3-difluoro-6-methoxybenzyl)-8-(pyridin-4-yl)-[1,2,4]triazolo[4,3-a]pyridin-5-amine]
9 | 277 | 231 | COc1ccc(F)c(F)c1CNc1ccc(-c2ccc(S(C)(=O)=O)cc2)c2nncn12 [Example 244, N-(2,3-difluoro-6-methoxybenzyl)-8-(4-(methylsulfonyl)phenyl)-[1,2,4]triazolo[4,3-a]pyridin-5-amine]
10 | 761 | 263 | CCc1ccccc1-c1ccc(NCc2c(F)cccc2OC)n2cnnc12 [Example 254, 8-(2-ethylphenyl)-N-(2-fluoro-6-methoxybenzyl)-[1,2,4]triazolo[4,3-a]pyridin-5-amine]
11 | 76.8 | 189 | COc1cccc(F)c1CNc1ccc(-c2cn(C(C)C)nc2C(F)(F)F)c2nncn12 [Example 255, N-(2-fluoro-6-methoxybenzyl)-8-(1-isopropyl-3-(trifluoromethyl)-1H-pyrazol-4-yl)-[1,2,4]triazolo[4,3-a] pyridin-5-amine]
12 | ≥ 62500 | 906 | COc1cccc(F)c1CNc1ccc(-c2ccccc2C(C)C)c2nncn12 [Example 257, N-(2-fluoro-6-methoxybenzyl)-8-(2-isopropylphenyl)-[1,2,4]triazolo[4,3-a] pyridin-5-amine]
13 | 7.8 | 17.6 | COc1cccc(F)c1CNc1ccc(-c2cnc(N3CCOCC3)nc2C)c2nncn12 [Example 261, N-(2-fluoro-6-methoxybenzyl)-8-(4-methyl-2-morpholinopyrimidin-5-yl)-[1,2,4]triazolo[4,3-a]pyridin-5-amine]
14 | 15.6 | 12.4 | COc1cccc(F)c1CNc1ccc(-c2cnc(N3CCOCC3)cc2C)c2nncn12 [Example 262, N-(2-fluoro-6-methoxybenzyl)-8-(4-methyl-6-morpholinopyridin-3-yl)-[1,2,4]triazolo[4,3-a]pyridin-5-amine]
15 | 15.4 | 16.9 | COc1cccc(F)c1CNc1ccc(-c2ccc(Cl)nc2C)c2nncn12 [Example 263, 8-(6-chloro-2-methylpyridin-3-yl)-N-(2-fluoro-6-methoxybenzyl)-[1,2,4]triazolo[4,3-a] pyridin-5-amine]
16 | 14.7 | 14.8 | COc1cccc(F)c1CNc1ccc(-c2ccnc(C(F)(F)F)c2)c2nncn12 [Example 264, N-(2-fluoro-6-methoxybenzyl)-8-(2-(trifluoromethyl)pyridin-4-yl)-[1,2,4]triazolo[4,3-a] pyridin-5-amine]
17 | 112 | 176 | COc1cc(CNc2ccc(-c3cccnc3C)c3nncn23)c(F)cc1F [Example 285, N-(2,4-difluoro-5-methoxybenzyl)-8-(2-methylpyridin-3-yl)-[1,2,4]triazolo[4,3-a] pyridin-5-amine]
18 | 115 | 112 | COc1ccc(F)c(F)c1CNc1ccc(-c2cccnc2C)c2nncn12 [Example 286, N-(2,3-difluoro-6-methoxybenzyl)-8-(2-methylpyridin-3-yl)-[1,2,4]triazolo[4,3-a] pyridin-5-amine]
19 | 84.9 | 184 | COc1ccc(F)c(CNc2ccc(-c3cccnc3C)c3nncn23)c1 [Example 291, N-(2-fluoro-5-methoxybenzyl)-8-(2-methylpyridin-3-yl)-[1,2,4]triazolo[4,3-a] pyridin-5-amine]
20 | 226 | 205 | CCc1ccncc1-c1ccc(NCc2c(F)cc(F)cc2OC)n2cnnc12 [Example 307, N-(2,4-difluoro-6-methoxybenzyl)-8-(4-ethylpyridin-3-yl)-[1,2,4]triazolo[4,3-a] pyridin-5-amine]
21 | 833 | 420 | COc1cccc(F)c1CNc1c(F)cc(-c2cccnc2C)c2nncn12 [Example 311, 6-fluoro-N-(2-fluoro-6-methoxybenzyl)-4-(2-methylpyridin-3-yl)-[1,2,4] triazolo[4,3-a]pyridin-7-amine]
22 | 71.6 | 71.6 | COc1cc(C)c(-c2ccc(NCc3c(F)cc(F)cc3OC)n3cnnc23)cn1 [Example 318, N-(2,4-difluoro-6-methoxybenzyl)-8-(6-methoxy-4-methylpyridin-3-yl)-[1,2,4] triazolo[4,3-a]pyridin-5-amine]
23 | 434 | 425 | COc1cc(F)cc(F)c1CNc1c(F)cc(-c2cccnc2C)c2nncn12 [Example 320, N-(2,4-difluoro-6-methoxybenzyl)-6-fluoro-8-(2-methylpyridin-3-yl)-[1,2,4]triazolo [4,3-a]pyridin-5-amine]
24 | 1530 | 2660 | COc1cc(F)cc(F)c1CNc1c(F)cc(-c2cnc(C)nc2C)c2nncn12 [Example 321, N-(2,4-difluoro-6-methoxybenzyl)-8-(2,4-dimethylpyrimidin-5-yl)-6-fluoro-[1,2,4]triazolo[4,3-a]pyridin-5-amine]
25 | 519 | 459 | Cc1cccc(F)c1CNc1ccc(-c2cccnc2C)c2nncn12 [Example 331, N-(2-fluoro-6-methylbenzyl)-8-(2-methylpyridin-3-yl)-[1,2,4]triazolo[4,3-a] pyridin-5-amine]
